Measured values published in ChEMBL document CHEMBL1121712, “Permethyl analogue of the pyrrolic antibiotic distamycin A” (J Med Chem, 1981).

Key:
[1] = Dissociation constant was determined; format: physicochemical
Plasmodium berghei = test: Mean survival time in blood schizonticidal screen against Plasmodium berghei at 640 mg/kg by Rane assay; Non-toxic; format: functional, organism-based; design: dose 640 mg/kg
Mus musculus = species on record: Mus musculus; test: Mean survival time at a dose of 25 ug/mL in mouse fibroblasts and Maloney sarcoma transplanted 3T3 fibroblasts by using Rane assay; Nontoxic; format: functional, organism-based

SMILES: Cc1c([N+](=O)[O-])c(C)n(C)c1C(=O)O
- pKa [1]: 5.5

SMILES: Cc1c(NC=O)c(C)n(C)c1C(=O)Nc1c(C)c(C(=O)NCCC(=N)N)n(C)c1C
- Mean survival time (Plasmodium berghei): Non-toxic
- Mean survival time (Mus musculus): Non-toxic

SMILES: Cc1c(NC=O)c(C)n(C)c1C(=O)NCCC(=N)N
- Mean survival time (Plasmodium berghei): Non-toxic
- Mean survival time (Mus musculus): Non-toxic
